Test results: BindingDB's records for doi:10.3109/14756366.2010.529807 (University of Ioannina, 2011)

The compounds below were run against T1, Seed linoleate 13S-lipoxygenase-1 (Glycine max, UniProt P08170) (assay: LOX Activity Assay). Settings: 25 °C.
T1 sequence (P08170 whole entry): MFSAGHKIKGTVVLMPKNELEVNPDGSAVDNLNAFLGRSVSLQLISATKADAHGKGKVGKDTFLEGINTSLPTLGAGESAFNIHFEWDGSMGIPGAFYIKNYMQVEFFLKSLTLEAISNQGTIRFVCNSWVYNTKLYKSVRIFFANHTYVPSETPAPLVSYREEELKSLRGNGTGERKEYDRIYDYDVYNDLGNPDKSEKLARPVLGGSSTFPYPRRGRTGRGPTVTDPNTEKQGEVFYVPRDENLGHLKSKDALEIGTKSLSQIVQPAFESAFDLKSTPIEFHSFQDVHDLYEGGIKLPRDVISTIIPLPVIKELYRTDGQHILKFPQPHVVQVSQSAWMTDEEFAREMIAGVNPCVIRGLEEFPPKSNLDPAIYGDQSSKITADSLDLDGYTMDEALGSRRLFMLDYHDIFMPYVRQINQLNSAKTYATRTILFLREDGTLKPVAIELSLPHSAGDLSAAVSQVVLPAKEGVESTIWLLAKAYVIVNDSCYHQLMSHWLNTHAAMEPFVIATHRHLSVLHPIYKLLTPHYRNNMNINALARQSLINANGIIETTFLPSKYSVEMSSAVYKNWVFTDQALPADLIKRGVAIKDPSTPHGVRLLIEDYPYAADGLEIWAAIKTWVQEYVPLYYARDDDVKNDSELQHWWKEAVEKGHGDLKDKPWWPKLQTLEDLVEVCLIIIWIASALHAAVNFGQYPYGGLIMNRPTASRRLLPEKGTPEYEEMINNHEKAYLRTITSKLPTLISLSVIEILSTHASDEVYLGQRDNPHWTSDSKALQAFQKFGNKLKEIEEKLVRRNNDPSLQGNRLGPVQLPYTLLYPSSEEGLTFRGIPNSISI
Method: Enzyme activity was monitored by UV analysis. 0.05 cm^3 of enzyme solution was added to a cuvette containing 2 cm^3 linoleic acid solution and the appropriate amounts of buffer and inhibitor solutions in thermostatic water bath at 25°C. There was no pre-incubation time of the enzyme with inhibitor solution. The activity of the enzyme was determined by monitoring the increase in the absorption caused by the oxidation of linoleic acid at 234 nm and 25°C (ε = 25 000 M^−1 cm^−1). One standard solution of complexes in DMSO (10^-2 M) was used for theinhibition activity experiments (three sets). In this case, the substrate concentration was kept constant (0.3 mM), while the amounts of buffer and inhibitor solutions varied according to the inhibitor final concentration needed(0.5-30 μM or 0.15-9 μL from standard solutions). The total experiment volume was 3 cm^3.
Clc1ccc2sc([S][Au][PH](c3ccccc3)(c3ccccc3)c3ccccc3)nc2c1 [[Au(tpp)(Clmbzt)] (4)] showed an IC50 of 16 µM.
c1ccc([PH]([Au][S]c2nc3ccccc3s2)(c2ccccc2)c2ccccc2)cc1 [[Au(tpp)(mbzt)] (3)] showed an IC50 of 39.4 µM.
Compound c1ccc([PH]([Au][S]C2=NCCS2)(c2ccccc2)c2ccccc2)cc1 [[Au(tpp)(mtzd)] (2)] has an IC50 of 18.8 µM.
Compound [Cl][Au][PH](c1ccccc1)(c1ccccc1)c1ccccc1 [[Au(tpp)Cl] (1)] has an IC50 of 1.2 µM.
